In PubChem BioAssay AID1850 (Southern Research Specialized Biocontainment Screening …, 2009):
Values joined by “and” are separate entries in the source; they are usually repeats but may differ in a detail not shown here. Identical values can stand only once.

tested on: Salmonella Typhi PhoP-promoter GFP reporter, fluorescence, 4 h; assay: PhoP regulon inhibitors, Salmonella typhi PhoP promoter GFP reporter, confirmatory (AID 1850)

Row | SMILES | IC50
1 | O=C(NCCCN1CCN(c2ccc(F)cc2)CC1)Nc1ccc([N+](=O)[O-])cc1 | 76.1 µM
2 | COC(=O)C1=C(C)N(Cc2ccccc2)C(=NCc2cccc(C(F)(F)F)c2)N[C@H]1c1cccc(F)c1 | 33.3 µM
3 | CN(C)CC/C=C1\c2ccccc2Sc2ccc(Cl)cc21 | 72.2 µM
4 | Cc1ccc(-c2csc(NC(=O)C[n+]3cc(-c4ccc(C)cc4)n4c3CCC4)n2)cc1 | 25 µM
5 | CN(C)C1C(=O)C(C(N)=O)=C(O)C2(O)C(=O)C3=C(O)c4c(O)cccc4C(C)(O)C3C(O)C12 (configuration not stated) | 1.01 µM
6 | c1ccc(CN2CCN(c3ncnc4c3[nH]c3ccccc34)CC2)cc1 | 37.8 µM
7 | O=C1C=C(Nc2ccccc2O)c2ccccc2C1=O | 54.5 µM
8 | Cc1c(CCOC(=O)C2C3CC4CC(C3)CC2C4)sc[n+]1CC(=O)c1ccc(Br)cc1 (configuration not stated) | 34.8 µM
9 | COc1ccc(/C=C/c2cc[n+](C(=O)Cc3ccccc3)cc2)cc1 | 118 µM
10 | CCN1CCN(C(=O)c2cc3cc(F)ccc3[nH]2)CC1 | 102 µM
11 | Cc1cc(C)c2sc(N(CCCN(C)C)C(=O)COc3ccc(Cl)cc3)nc2c1 | 30.8 µM
12 | Oc1ccccc1-c1cc(C(F)(F)C(F)F)[nH]n1 | 80.3 µM
13 | CN(C)c1ccc(/C=C/c2ccc3ccccc3[n+]2C)cc1 | 18.7 µM
14 | CO[C@@]1(NC(=O)C2SC(=C(C(N)=O)C(=O)O)S2)C(=O)N2C(C(=O)O)=C(CSc3nnnn3C)CS[C@@H]21 (some centres not stated) | 9.42 µM
15 | c1ccc(CN2CCN(c3nc(NCc4ccco4)c4ccccc4n3)CC2)cc1 | 38 µM
16 | CN1CCC(=C2c3ccccc3C=Cc3ccccc32)CC1 | 105 µM
17 | c1ccc(CNc2nc(N3CCN(Cc4ccccc4)CC3)nc3ccccc23)cc1 | 18.2 µM
18 | CCn1cc(C(=O)NCc2ccc3c(c2)OCO3)c(=O)c2cc(F)c(N3CCN(C(=O)c4ccco4)CC3)cc21 | 139 µM
19 | O=C(Cc1ccc(Br)cc1)c1ccc(O)cc1O | 119 µM
20 | CN(C)[C@@H]1C(=O)C(C(N)=O)=C(O)[C@@]2(O)C(=O)C3=C(O)c4c(O)cccc4[C@@](C)(O)C3[C@H](O)C12 (some centres not stated) | 1.03 µM and 4.02 µM
21 | CCCCn1c(NS(=O)(=O)c2ccccc2)c(S(=O)(=O)c2ccc(C)cc2)c2nc3ccccc3nc21 | 5.99 µM
22 | CCCCOc1ccc(NC2=NC3(CCCCC3)N=C(N)N2)cc1 | 6.52 µM
23 | O=C(CNC(=O)c1ccccc1)N/N=C/c1ccc([N+](=O)[O-])s1 | 19.7 µM
24 | CCCCCCCSc1cc(OC)c(CCN(C)C)cc1OC | 35.7 µM
25 | C=C1c2cccc(O)c2C(O)=C2C(=O)[C@]3(O)C(O)=C(C(N)=O)C(=O)[C@@H](N(C)C)[C@@H]3[C@@H](O)[C@H]12 | 0.56 µM
26 | Nc1nonc1-n1nnc(C(=O)N/N=C/c2cc(Br)ccc2O)c1CSC1=NCCS1 | 105 µM

Row | SMILES | IC50
27 | O=C(C[n+]1ccc(-c2ccccc2)cc1)Nc1ccc([N+](=O)[O-])cc1 | 40.5 µM
28 | CN1CCC(OC(=O)c2ccc(Br)cc2)CC1 | 65.4 µM
29 | O=C(N/N=C/c1cc([N+](=O)[O-])ccc1O)C(O)(c1ccccc1)c1ccccc1 | 73.4 µM
30 | O=C(Cn1cncn1)N/N=C/c1ccccc1O | 139 µM
31 | COc1ccccc1CNCCc1ccc(F)cc1 | 24.8 µM
32 | O=C1NCCN1c1ncc([N+](=O)[O-])s1 | 40.8 µM
33 | NC(=O)c1ccc(N=C2C(=O)Nc3ccc([N+](=O)[O-])cc32)cc1 | 34.6 µM
34 | CC[C@H]1OC(=O)[C@H](C)[C@@H](O[C@H]2C[C@@](C)(OC)[C@@H](O)[C@H](C)O2)[C@H](C)[C@@H](O[C@@H]2O[C@H](C)C[C@H](N(C)C)[C@H]2O)[C@](C)(OC)C[C@@H](C)C(=O)[C@H](C)[C@@H](O)[C@]1(C)O | 52 µM
35 | CN(C)CCCN(C(=O)c1ccc2c(c1)CCCC2)c1nc2ccc(Cl)cc2s1 | 83.7 µM
36 | O=C(CSc1nc2ccccc2[nH]1)Nc1ccc(F)c(F)c1 | 62.5 µM
37 | O=C1C=CC(=O)N1CCCCCCN1C(=O)C=CC1=O | 95.1 µM
38 | c1ccc2c(c1)CSc1sccc1C2=C1CCNCC1 | 49.7 µM
39 | Cc1c2ccncc2c(C)c2c1[nH]c1ccccc12 | 18.8 µM
40 | O=C(O)c1cn(-c2ccc(F)cc2)c2cc(Cl)c(F)cc2c1=O | 83.7 µM
41 | CCCCCCCNC(=O)C1(CC2CC(c3cccc(Br)c3)=NO2)CCNCC1 (configuration not stated) | 53.7 µM
42 | O=[N+]([O-])c1ccc(O)c(/C=N/Nc2ccccn2)c1 | 13.2 µM
43 | CN1CCN(C(c2cccc(Cl)c2)c2ccccc2Cl)CC1 (configuration not stated) | 103 µM
44 | COC(=O)N/N=C/c1c[n+]([O-])c2ccccc2[n+]1[O-] | 49.2 µM
45 | Cc1ccc(-n2c(-c3ccc(Br)cc3)c[n+]3c2CCc2ccc4cccnc4c2-3)cc1 | 62.2 µM
46 | c1ccc(CN2CCC(Nc3nc(-c4ccccc4)nc4ccccc34)CC2)cc1 | 35 µM
47 | Oc1c(Cl)cc(CN2CCCCC2)c2cccnc12 | 20 µM
48 | C#CCOCCOCCOCCNc1nc(N2CCN(C(=O)CCCCCCCCCCNC(=O)Cn3cc(CCCCCN)nn3)CC2)nc(N2CCN(C(=O)CCCCCCCCCCNC(=O)[C@H]([C@@H](C)CC)n3cc(CCCCCN)nn3)CC2)n1 | 38.9 µM
49 | O=C(O)/C(=C\C(=O)c1ccccc1)Nc1ccccc1 | 39.4 µM
50 | CNC(=S)N1CCN(c2c(F)cc3c(=O)c(C(=O)O)cn(C4CC4)c3c2OC)CC1C (configuration not stated) | 7.83 µM
51 | Clc1ccc(-c2cc(C3CCNCC3)[nH]n2)c(Cl)c1 | 55 µM
52 | COc1ccc(/C=C/C(=O)NC(=S)NNC(=O)c2cnccn2)cc1 | 49.8 µM

Row | SMILES | IC50
53 | CNC[C@@H](CC1CCCCC1)NC[C@H](CC(C)C)NCCc1cccc(C(F)(F)F)c1 | 19.8 µM
54 | O=C(N/N=C/c1ccccn1)c1cccs1 | 71.6 µM
55 | S=C(Nc1cc(Cl)cc(Cl)c1)NC1CCN(Cc2ccccc2)CC1 | 80.8 µM
56 | NC1=NC2(CCCCC2)N=C(Nc2ccc(Br)cc2)N1 | 12.7 µM
57 | C#CCOCCOCCOCCNc1nc(N2CCN(C(=O)[C@H]([C@@H](C)CC)n3cc([C@@H](N)Cc4ccc(O)cc4)nn3)CC2)nc(N2CCN(C(=O)[C@H](Cc3cc4ccccc4[nH]3)n3cc([C@@H](N)CC(C)C)nn3)CC2)n1 | 102 µM
58 | CO[C@H]1C=CO[C@@]2(C)Oc3c(C)c(O)c4c(O)c(c5c(c4c3C2=O)NC2(CCN(CC(C)C)CC2)N=5)=NC(=O)C(C)=CC=C[C@H](C)[C@H](O)[C@@H](C)[C@@H](O)[C@@H](C)[C@H](OC(C)=O)[C@@H]1C | 1.53 µM
59 | COc1cc(CNCCO)cc(Cl)c1OCc1ccc(Cl)cc1Cl | 38 µM
60 | C#CCOCCOCCOCCNc1nc(N2CCN(C(=O)CCCCCCCCCCNC(=O)[C@H]([C@@H](C)CC)n3cc(CCCCN=C(N)N)nn3)CC2)nc(N2CCN(C(=O)CCCCCCCCCCNC(=O)[C@H](CO)n3cc(CCCCCN)nn3)CC2)n1 | 34.7 µM
61 | COc1ccccc1Nc1nc(NCc2ccco2)c2ccccc2n1 | 19.6 µM
62 | O=c1[nH]c(-c2ccccn2)nc(C(F)(F)F)c1Br | 70.2 µM
63 | CCCCCOc1ccc(C)cc1CN(CCCl)CCCl | 30.4 µM
64 | CC(NCc1ccc(Cl)c(Cl)c1)C(O)c1ccccc1 (configuration not stated) | 61.6 µM
65 | CN(C)CCCN1c2ccccc2Sc2ccc(Cl)cc21 | 68.6 µM and 39 µM
66 | COc1c(N2CCN(C(=S)Nc3ccc(F)cc3)C(C)C2)c(F)cc2c(=O)c(C(=O)O)cn(C3CC3)c12 (configuration not stated) | 1.72 µM
67 | O=C(NC(=S)NNC(=O)c1cccs1)c1ccc(Br)o1 | 64.3 µM
68 | CCC(/C=C1\Sc2ccc(OC)cc2N1CCO)=C\c1sc2ccc(OC)cc2[n+]1CCO | 31.8 µM
69 | COc1cccc(Nc2nc(NCC3CCCO3)c3ccccc3n2)c1 (configuration not stated) | 10.2 µM
70 | c1ccc2c(c1)CCc1ccccc1C2=C1CCNCC1 | 74.9 µM
71 | CN(C)CCCN(C(=O)COc1ccccc1)c1nc2ccc(Cl)cc2s1 | 77.8 µM
72 | NC1=NC[C@H](Cc2ccc(O)cc2)N1CCC12CC3CC(CC(C3)C1)C2 | 35.8 µM
73 | OCCCNc1c2ccccc2nc2ccccc12 | 105 µM
74 | C/C(O)=C\c1nc2ccccc2oc1=O | 44.4 µM
75 | Cc1cc(NS(=O)(=O)c2ccc(NC(=O)Nc3cccc(Cl)c3)cc2)no1 | 148 µM
76 | O=C(N[C@H](CO)[C@H](O)c1ccc([N+](=O)[O-])cc1)C(Cl)Cl | 4.85 µM
77 | OC(CNCc1ccco1)Cn1c2ccc(Br)cc2c2cc(Br)ccc21 (configuration not stated) | 20.8 µM
78 | Cc1ccc(CNCCC2=CCCCC2)cc1 | 46.1 µM

Row | SMILES | IC50
79 | O=C(Nc1nnc(-c2ccco2)o1)c1cccc(Cl)c1 | 36.9 µM
80 | CCCCNC1=CC(=O)C(=O)c2ccccc21 | 13.8 µM
81 | O=C1CSC(=S)N1c1cccc(O)c1 | 126 µM
82 | CCN(CCC(=O)Nc1ccc(Br)c(C)c1)Cc1ccccc1 | 75.1 µM
83 | Oc1ccc(C[C@H]2CNCCN2CCCCC2CCCCC2)cc1 | 64.5 µM
84 | O=[N+]([O-])c1ccc(O)c2ncccc12 | 0.96 µM
85 | CN1CCN(c2cc3c(cc2F)c(=O)c(C(=O)O)cn3CCF)CC1 | 0.31 µM
86 | NC1=NC[C@H](CC2CCCCC2)N1CCc1cc(C(F)(F)F)cc(C(F)(F)F)c1 | 35.6 µM
87 | COC(=O)C1C(O)C(C)C(O)C(C)/C=C\C=C(/C)C(=O)Nc2c(C)c(OC(C)=O)c3c(c2O)C(=O)C(C)=C2OCOC(=C23)/C(C)=C/C(C)(O)C(O)C(C)C1O (configuration not stated) | 25.2 µM
88 | Oc1ccc(CN2CCN(c3ccccc3)CC2)c2cccnc12 | 147 µM
89 | CC(C)(C)c1ccc(OCCCCCCN2CCNCC2)cc1 | 69.2 µM
90 | Nc1ncn(C2O[C@H](CO)[C@@H](O)[C@H]2O)c(=O)n1 (some centres not stated) | 34 µM
91 | CN(C)c1ccc(O)c2c1CC1CC3[C@@H](N(C)C)C(=O)C(C(N)=O)=C(O)[C@]3(O)C(=O)C1=C2O (some centres not stated) | 8.82 µM
92 | Cc1cc(/C=C\c2ccc3cc(N(C)C)ccc3[n+]2C)c(C)n1-c1ccccc1 | 27.8 µM
93 | Clc1ccc(CN2CCc3c([nH]c4ccccc34)C2)cc1Cl | 36.1 µM
94 | CC(=O)NC(c1cccs1)c1cc([N+](=O)[O-])c2cccnc2c1O (configuration not stated) | 31.7 µM
95 | CCOC(=O)c1ccc(CNCc2ccc(Br)cc2)cc1 | 78.5 µM
96 | O=C(N/N=C/c1ccc([N+](=O)[O-])o1)C1CCCC1 | 35.5 µM
97 | O=c1c2ccccc2[nH]c2ccccc12 | 36.2 µM
98 | CC[C@H]1OC(=O)C[C@@H](O)[C@H](C)[C@@H](O[C@@H]2O[C@H](C)C[C@H](N(C)C)[C@H]2O)[C@@H](CC=O)C[C@@H](C)C(=O)C=C[C@]2(C)O[C@H]2[C@@H]1C | 7.16 µM
99 | CN(C)CCCNC(=S)NCC(c1ccc(Cl)cc1Cl)c1c[nH]c2ccccc12 (configuration not stated) | 52.5 µM
100 | CCCCCCCCCCOC(=O)Cn1c(COc2ccc(OC)cc2)[n+](C)c2ccccc21 | 22.7 µM and 14.4 µM
101 | C#CCOCCOCCOCCNc1nc(N2CCN(C(=O)C(Cc3ccc(O)cc3)n3cc(C(N)CC(C)C)nn3)CC2)nc(N2CCN(C(=O)C(Cc3cc4ccccc4[nH]3)n3cc(C(N)Cc4ccc(O)cc4)nn3)CC2)n1 (configuration not stated) | 130 µM
102 | CCN(CC)c1ccc(CNc2nc3ccccc3n2CCN2CCCCC2)cc1 | 52.1 µM
